We go through ten compounds from US20160151503A1, “COMPOSITIONS AND PREPARATION METHODS OF LOW MELTING IONIC SALTS OF POORLY-WATER SOLUBLE DRUGS” (MW ENCAP LIMITED, priority 2013, published 2016).

Structures can show the parent of a compound that is named as a salt.

The nature of series [1]: Drug solubility in exemplar lipid formulations (SEDDS) and individual excipients.
Description: Where lipid based formulations have been employed, formulations were made up in glass vials by weighing the appropriate quantities of excipient directly into the vial, followed by mixing
In some cases the solubility of the low melting ionic salt in individual excipients was also measured.
Drug solubility in each formulation was assessed in one of two ways. Firstly, quantitatively, by incubating formulations with excess drug at 37 degrees and taking samples over time. These samples were centrifuged to pellet solid material and the drug concentration in the formulation assessed by HPLC.
The nature of series [2]: In vitro dispersion and digestion of cinnarizine decylsulfate SEDDS solution in simulated intestinal fluid. Type of series: in vitro ADME. Conditions: after in vitro dispersion or digestion of SEDDS solution in SIF.
The nature of series [3]: Equilibrium solubility in colloids formed by in vitro digestion of blank SEDDS in simulated intestinal fluid. Type of series: physicochemical. As to conditions: colloids from 60 min digestion of blank LC2 SEDDS (1 g in 39 mL SIF), pH 6.5, 37° C. How it is done:
In this experiment blank SEDDS formulation (1 g) was dispersed in 39 mL of simulated intestinal fluid. (SIF) (2 mM Tris-maleate, 1.4 mM CaCl2.H2O, 150 mM NaCl, 3 mM NaTDC, 0.75 mM PC, pH 6.5, 37° C.) and pancreatic enzymes added to stimulate digestion. The experiment was conducted at 37° C. and allowed to continue for 60 mins. […] From the data in Table 5.3 below it is apparent that synthesis of the IL increases drug affinity for intestinal colloidal phases and therefore increases solubilisation in the GI tract—consistent with the increases in exposure seen in FIG. 3

Series [4] in a line: Itraconazole plasma pharmacokinetics after oral administration of comparative formulations to rats. Format: in vivo. Conditions: same equivalent dose of ITZ FB, solution in SEDDS. As to the method:
Note that the very low solubility of ITZ free base precludes formulation as a lipid based formulation. It is only via isolation as the IL that this possibility is realised since the solubility of the ITZ IL in lipid formulations is very much higher. All were dosed at the same dose (20 mg/kg).
The isolation of ITZ as the docusate IL increased drug solubility in the SEDDS formulation and allowed administration as a Solution in the SEDDS formulation. […] ITZ FB was not sufficiently soluble in the SEDDS formulation to allow administration as a solution in the SEDDS at any reasonable dose and was therefore dosed as a suspension in the SEDDS formulation and also as an aqueous suspension. The same dose was administered as the commercial Sporanox formulation of ITZ FB
It is apparent that the ITZ IL formulation allowed administration of a much higher ITZ dose as a solution in a lipid based formulation and that this in turn led to much higher plasma levels than the equivalent suspension formulation of the free base, or the commercial Sporanox formulation.

[5] abbreviates: SEDDS: 15% soybean oil, 15% Maisine 35-1, 60% Cremophor EL, 10% EtOH.
[6] abbreviates: Table 8 Meclofenamic Acid, MC SEDDS.
Where [7] appears, read: Table 7 Tolfenamic Acid, MC SEDDS.

Turning to `C(=C/c1ccccc1)/CN1CCN(C(c2ccccc2)c2ccccc2)CC1` [Cinnadzine free base, Cinnarizine, reference compound], in series [1] (setting [5]), the “cinnarizine solubility in the lipid vehicle” value is reported as “approximately 44 mg/g”.
With `C(=C\c1ccccc1)/CN1CCN(C(c2ccccc2)c2ccccc2)CC1` [Cinnarizine-decylsulfate, Cinnarizine Decylsulfate], in series [2], the “incorporated drug remaining solubilized in an aqueous phase” value is listed as “more than 95%”. In addition, the “miscibility with the SEDDS formulation” value in series [1] (setting [5]) is on record as “essentially miscible”.
On to `COc1ccc2c(c1)[C@]13CCCC[C@@H]1[C@H](C2)N(C)CC3` [Dextromethorphan, reference compound], for which the “Solubility in MC SEDDS (mg/g) Free base equiv.” value in series [1] (Table 5 Dextromethorphan and Metformin, MC SEDDS) is on record as under 50 mg/g.
For `CCC(C)n1ncn(-c2ccc(N3CCN(c4ccc(OCC5COC(Cn6cncn6)(c6ccc(Cl)cc6Cl)O5)cc4)CC3)cc2)c1=O` (stereo not shown) [Itraconazole free base, Itraconazole, reference compound], the “Solubility in simulated intestinal fluid plus lipid digestion products” value in series [3] (listed as ITZ FB) was under 47 µg/mL.
As for `CCC(C)n1ncn(-c2ccc(N3CCN(c4ccc(OCC5COC(Cn6cncn6)(c6ccc(Cl)cc6Cl)O5)cc4)CC3)cc2)c1=O` (stereo not shown) [Itraconazole- diocytlsulfosuccinate, Itraconazole Dioctylsulfosuccinate (Docusate)], the “plasma levels compared to the commercial formulation” value in series [4] is about 2.5 fold. Also, in series [3] (listed as ITZ-docusate IL), the “Solubility in simulated intestinal fluid plus lipid digestion products” value is 1720 ± 150 µg/mL. The “Solubility in LC^2 SEDDS (mg/g) itraconazole equiv.” value in series [1] (LC2 SEDDS: 30% SBO, 30% Maisine, 30% CrEL, 10% EtOH) is listed as 159.8 mg/g.
For the compound `Cc1ccc(Cl)c(Nc2ccccc2C(=O)O)c1Cl` [Meclofenamic acid, 1- hexadecyl-3- methylpyridinium salt] [Meclofenamic Acid, 1-hexadecyl-3-methylpyridinium Salt], the “Solubility in MC^2 SEDDS (mg/g) Free base equiv.” value in series [1] (setting [6]) is over 240 mg/g.
Turning to `Cc1ccc(Cl)c(Nc2ccccc2C(=O)O)c1Cl` [Meclofenamic acid, N-decyl-N,N- dimethyldodecylammonium salt] [Meclofenamic Acid, N-decyl-N,N-dimethyldodecylammonium Salt], the “Solubility in MC^2 SEDDS (mg/g) Free base equiv.” value in series [1] (setting [6]) was over 240 mg/g.
`Cc1c(Cl)cccc1Nc1ccccc1C(=O)O` [Tolfenamic acid dodecylammonium salt, Tolfenamic Acid, Dodecylammonium Salt]: the “Solubility in MC^2 SEDDS (mg/g) Free base equiv.” value in series [1] (setting [7]) is given as over 50 mg/g.
Take `Cc1c(Cl)cccc1Nc1ccccc1C(=O)O` [Tolfenamic acid, N-butyl- N,N-dimethylbutyl-N- dodecylammoni] [Tolfenamic Acid, N-butyl-N,N-dimethylbutyl-N-dodecylammonium Salt]: the “Solubility in MC^2 SEDDS (mg/g) Free base equiv.” value in series [1] (setting [7]) was over 200 mg/g.
The same measure, in the same setting: in the case of `Cc1c(Cl)cccc1Nc1ccccc1C(=O)O` [Tolfenamic acid, N-decyl-N,N- dimethyldodecylammonium salt] [Tolfenamic Acid, N-decyl-N,N-dimethyldodecylammonium Salt] it was over 200 mg/g.
